Source: patent publication US9012655B2, “Antimicrobial/adjuvant compounds and methods” (Denouamed, Inc., priority 2011, dated 2015)
In brackets after ≈: the same amount, converted by molar mass.

What was measured:
[1] = test system: Staphylococcus aureus NRS2 (ATCC700698); assay: MIC panel of challenge pathogens (CLSI); assay type: cell-based; conditions: Staphylococcus aureus NRS2 (ATCC700698); for MIC: read-out: 100% inhibition; for MIC50: read-out: MIC50 (50%); for MIC80: read-out: MIC80 (80%)
Procedure: (§1) The inocula for each bacterial strain were prepared by picking 5-10 distinct colonies from the culture plates and suspending them in the appropriate broth as per Clinical and Laboratory Standards Institute (CLSI) guidelines M07-A8, M24-A or M11-A7 as appropriate. The inoculum was resuspended by vigorous shaking on a vortex mixer for 15 s. The turbidity was then adjusted to McFarland standard 0.5 ([…]). The inoculum was further diluted in the appropriate media for MIC tests to give a final inoculum in each well of 2-8×10^5 CFU/ml. MICs were tested in the appropriate broth in accordance with the appropriate CLSI guidelines.
(§2) A stock solution of each compound was prepared at a concentration of 1.28 g/L in DMSO. The stock was further diluted in the appropriate media to give a top starting concentration of 128 mg/L in the assay. 100 μL of the appropriate media, as per CLSI guidelines, was dispensed into each well in columns 2-12. 200 μL of the each compound solution (at 256 mg/L) was dispensed into each well in column 1. 100 μL aliquots were pipetted from column 1 wells and dispensed into column 2 with a multichannel pipette (±2% coefficient of variation) thus diluting two-fold. 100 μL samples were then pipetted from column 2 wells and dispensed into column 3. The process was repeated through to column 10. The final 100 μL of diluted drug from column 10 was then discarded. Row 11 acted as a positive control (no compound, but organisms added), Row 12 acted as a negative control (no compound, and no organisms added).
(§3) 100 μL of the appropriate inoculum suspension in the appropriate media, as per CLSI guidelines, was added to the appropriate wells. […] All plates were incubated in the dark under aerobic or anaerobic conditions at 30-37° C. for 24-48 hours, according to the appropriate CLSI guideline. Plates were read visually 24-48 hours post inoculation. Endpoints of 100% inhibition were determined (CLSI interpretation endpoints following visual examination).
(§4) MIC50, MIC80, and 100% inhibition results are reported below in μg/mL in the following Tables, indicating each compound tested against a given species and strain: […]

[2] = test system: Staphylococcus aureus EUP MRSA004; assay: MIC panel of challenge pathogens (CLSI); assay type: cell-based; conditions: EUPMRSA004, Staphylococcus aureus EUP MRSA004; for MIC: read-out: 100% inhibition; for MIC50: read-out: MIC50 (50%); for MIC80: read-out: MIC80 (80%)
Procedure: as §1, §2, §3, §4

[3] = test system: Staphylococcus aureus AUR131 007035; assay: MIC panel of challenge pathogens (CLSI); assay type: cell-based; conditions: AUR131007035, Staphylococcus aureus AUR131 007035; for MIC: read-out: 100% inhibition; for MIC50: read-out: MIC50 (50%); for MIC80: read-out: MIC80 (80%)
Procedure: as §1, §2, §3, §4

[4] = test system: Staphylococcus aureus EUP SAU040; assay: MIC panel of challenge pathogens (CLSI); assay type: cell-based; conditions: EUPSAU040, Staphylococcus aureus EUP SAU040; for MIC: read-out: 100% inhibition; for MIC50: read-out: MIC50 (50%); for MIC80: read-out: MIC80 (80%)
Procedure: as §1, §2, §3, §4

[5] = test system: Staphylococcus aureus AUR58 7005; assay: MIC panel of challenge pathogens (CLSI); assay type: cell-based; conditions: AUR587005, Staphylococcus aureus AUR58 7005; for MIC: read-out: 100% inhibition; for MIC50: read-out: MIC50 (50%); for MIC80: read-out: MIC80 (80%)
Procedure: as §1, §2, §3, §4

[6] = test system: Staphylococcus aureus NRS384; assay: MIC panel of challenge pathogens (CLSI); assay type: cell-based; conditions: Staphylococcus aureus NRS384; for MIC: read-out: 100% inhibition; for MIC50: read-out: MIC50 (50%); for MIC80: read-out: MIC80 (80%)
Procedure: as §1, §2, §3, §4

[7] = test system: Staphylococcus aureus NRS382; assay: MIC panel of challenge pathogens (CLSI); assay type: cell-based; conditions: Staphylococcus aureus NRS382; for MIC: read-out: 100% inhibition; for MIC50: read-out: MIC50 (50%); for MIC80: read-out: MIC80 (80%)
Procedure: as §1, §2, §3, §4

[8] = test system: Staphylococcus aureus NRS383; assay: MIC panel of challenge pathogens (CLSI); assay type: cell-based; conditions: Staphylococcus aureus NRS383; for MIC: read-out: 100% inhibition; for MIC50: read-out: MIC50 (50%); for MIC80: read-out: MIC80 (80%)
Procedure: as §1, §2, §3, §4

[9] = test system: Enterococcus faecalis ATCC51299; assay: MIC panel of challenge pathogens (CLSI); assay type: cell-based; conditions: Enterococcus faecalis ATCC51299; for MIC: read-out: 100% inhibition; for MIC50: read-out: MIC50 (50%); for MIC80: read-out: MIC80 (80%)
Procedure: as §1, §2, §3, §4

[10] = test system: Methicillin-Resistant Staph. aureus (MRSA); assay: MIC, NCCLS M7-A6 broth microdilution, MRSA; assay type: cell-based; conditions: Staphylococcus aureus, MRSA, 16 to 20 h, 35 degrees Celsius
In short: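 Broth microdilution per NCCLS M7-A6 in cation-adjusted Mueller-Hinton broth, doubling dilutions, inoculum 5×10^5 CFU/mL, DMSO controls included. Read after 16–20 h at 35 °C in ambient air; MIC is lowest concentration preventing visible growth.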

[11] = target: AcpS enzyme (Escherichia coli, UniProt P24224); assay: Measurement of AcpS inhibition ([3H]acetyl-CoA incorporation into apo-ACP); assay type: biochemical; conditions: % activity vs blank-subtracted counts; for activity at 50 µM: test compound 50 uM; for remaining activity at 500 µM: test compound 500 uM
Sequence of AcpS enzyme (P24224 whole entry): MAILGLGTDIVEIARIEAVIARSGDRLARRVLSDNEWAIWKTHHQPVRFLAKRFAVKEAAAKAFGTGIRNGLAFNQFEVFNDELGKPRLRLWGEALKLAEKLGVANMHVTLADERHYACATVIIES
In short: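 Acetyl transfer from [3H]acetyl-CoA (labelled stock mixed with unlabelled acetyl-CoA) onto apo-ACP by E. coli AcpS at RT, started with substrate; aliquots TCA-precipitated at time points up to 60 min. Pellet radioactivity by scintillation; results as % activity of blank-subtracted substrate counts.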

Row | Structure (SMILES) | MIC [1] [µg/mL] | MIC50 [1] [µg/mL] | MIC80 [1] [µg/mL] | MIC [2] [µg/mL] | MIC50 [2] [µg/mL] | MIC80 [2] [µg/mL] | MIC [3] [µg/mL] | MIC50 [3] [µg/mL] | MIC80 [3] [µg/mL] | MIC [4] [µg/mL] | MIC50 [4] [µg/mL] | MIC80 [4] [µg/mL] | MIC [5] [µg/mL] | MIC50 [5] [µg/mL] | MIC80 [5] [µg/mL] | MIC [6] [µg/mL] | MIC50 [6] [µg/mL] | MIC80 [6] [µg/mL] | MIC [7] [µg/mL] | MIC50 [7] [µg/mL] | also measured
1 | Cc1ccc(Cl)cc1-c1cc(-c2nnn[nH]2)sc1-c1cc(Cl)ccc1C [DNM0508, 5-(4,5-Bis(5-chloro-2-methylphenyl)thiophen-2-yl)-1H-tetrazole] | 1 (≈ 2.49 µM) | 0.5 (≈ 1.25 µM) | 1 (≈ 2.49 µM) | 1 (≈ 2.49 µM) | 1 (≈ 2.49 µM) | 1 (≈ 2.49 µM) | 1 (≈ 2.49 µM) | 1 (≈ 2.49 µM) | 1 (≈ 2.49 µM) | 1 (≈ 2.49 µM) | 1 (≈ 2.49 µM) | 1 (≈ 2.49 µM) | 1 (≈ 2.49 µM) | 1 (≈ 2.49 µM) | 1 (≈ 2.49 µM) | 1 (≈ 2.49 µM) | 1 (≈ 2.49 µM) | 1 (≈ 2.49 µM) | 1 (≈ 2.49 µM) | 1 (≈ 2.49 µM) | MIC80 [7]: 1 µg/mL (≈ 2.49 µM); MIC [8]: 1 µg/mL (≈ 2.49 µM); MIC50 [8]: 1 µg/mL (≈ 2.49 µM); MIC80 [8]: 1 µg/mL (≈ 2.49 µM); MIC [9]: 2 µg/mL (≈ 4.98 µM); MIC50 [9]: 2 µg/mL (≈ 4.98 µM); MIC80 [9]: 2 µg/mL (≈ 4.98 µM); MIC [10]: 4 µM (≈ 1.61 µg/mL); activity at 50 µM [11]: 44.9%; remaining activity at 500 µM [11]: 0.1%
2 | Fc1ccc(-c2cc(-c3nnn[nH]3)sc2-c2ccc(F)c3ccccc23)c2ccccc12 [DNM0537, 5-(4,5-Bis(4-fluoronaphthalen-1-yl)thiophen-2-yl)-1H-tetrazole] | 1 (≈ 2.27 µM) | 1 (≈ 2.27 µM) | 1 (≈ 2.27 µM) | 1 (≈ 2.27 µM) | 0.5 (≈ 1.14 µM) | 1 (≈ 2.27 µM) | ≤ 0.25 | ≤ 0.25 | ≤ 0.25 | 1 (≈ 2.27 µM) | 1 (≈ 2.27 µM) | 1 (≈ 2.27 µM) | ≤ 0.25 | ≤ 0.25 | ≤ 0.25 | ≤ 0.25 | ≤ 0.25 | ≤ 0.25 | ≤ 0.25 | ≤ 0.25 | MIC80 [7]: ≤ 0.25 µg/mL; MIC [8]: ≤ 0.25 µg/mL; MIC50 [8]: ≤ 0.25 µg/mL; MIC80 [8]: ≤ 0.25 µg/mL; MIC [9]: 0.5 µg/mL (≈ 1.14 µM); MIC50 [9]: 0.5 µg/mL (≈ 1.14 µM); MIC80 [9]: 0.5 µg/mL (≈ 1.14 µM); MIC [10]: 2 µM (≈ 0.881 µg/mL); activity at 50 µM [11]: 1.28%; remaining activity at 500 µM [11]: 0.14%
3 | CC(C)c1cc(Cl)ccc1-c1cc(-c2nnn[nH]2)sc1-c1ccc(Cl)cc1C(C)C [DNM0548, 5-(4,5-Bis(4-chloro-2-iso-propylphenyl)thiophen-2-yl)-1H-tetrazole] | 0.5 (≈ 1.09 µM) | 0.5 (≈ 1.09 µM) | 0.5 (≈ 1.09 µM) | 0.5 (≈ 1.09 µM) | 0.5 (≈ 1.09 µM) | 0.5 (≈ 1.09 µM) | 0.5 (≈ 1.09 µM) | 0.5 (≈ 1.09 µM) | 0.5 (≈ 1.09 µM) | 0.5 (≈ 1.09 µM) | 0.5 (≈ 1.09 µM) | 0.5 (≈ 1.09 µM) | 1 (≈ 2.19 µM) | 1 (≈ 2.19 µM) | 1 (≈ 2.19 µM) | ≤ 0.25 | ≤ 0.25 | ≤ 0.25 | 0.5 (≈ 1.09 µM) | 0.5 (≈ 1.09 µM) | MIC80 [7]: 0.5 µg/mL (≈ 1.09 µM); MIC [8]: ≤ 0.25 µg/mL; MIC50 [8]: ≤ 0.25 µg/mL; MIC80 [8]: ≤ 0.25 µg/mL; MIC [9]: ≤ 0.25 µg/mL; MIC50 [9]: ≤ 0.25 µg/mL; MIC80 [9]: ≤ 0.25 µg/mL; MIC [10]: 4 µM (≈ 1.83 µg/mL); activity at 50 µM [11]: 3.1%; remaining activity at 500 µM [11]: 0.1%
